Results reported in US8952024B2, “Herbicidal pyrimidone derivatives” (E I du Pont de Nemours and Company, priority 2009, dated 2015).

Tests used:
Type in all cases: in vivo
Conditions in all cases: Postemergence
[1] = test system: bermudagrass (Cynodon dactylon); test: Test B pre-/postemergence plant response
Procedure, shortened: (§1)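 Each species received compound formulated in non-phytotoxic solvent with surfactant, either at planting into a loam and sand blend or as a foliar spray once plants reached 2 to 18 cm in peat-based medium. Plants stayed in the greenhouse 13 to 15 days before visual evaluation against controls, scored 0 (no effect) to 100 (complete control).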

[2] = test system: blackgrass (Alopecurus myosuroides); test: Test B pre-/postemergence plant response
Procedure, shortened: as §1

[3] = test system: cocklebur (Xanthium strumarium); test: Test B pre-/postemergence plant response
Procedure, shortened: as §1

corn (Zea mays) = test: Test B pre-/postemergence plant response
Procedure, shortened: as §1

[4] = test system: giant foxtail (Setaria faberii); test: Test B pre-/postemergence plant response
Procedure, shortened: as §1

[5] = test system: johnsongrass (Sorghum halepense); test: Test B pre-/postemergence plant response
Procedure, shortened: as §1

kochia (Kochia scoparia) = test: Test B pre-/postemergence plant response
Procedure, shortened: as §1

[6] = test system: morningglory (Ipomoea coccinea); test: Test B pre-/postemergence plant response
Procedure, shortened: as §1

soybean (Glycine max) = test: Test B pre-/postemergence plant response
Procedure, shortened: as §1

wild oat (Avena fatua) = test: Test B pre-/postemergence plant response
Procedure, shortened: as §1

[7] = test system: canarygrass (Phalaris minor); test: Test B postemergence plant response
Procedure, shortened: (§2)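 Visual ratings from 0 (no effect) to 100 (complete control), made against controls 13–15 days after treatment, kept in a greenhouse. Compounds were applied postemergence to potted plants at the 1- to 4-leaf stage (2–18 cm).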

[8] = test system: chickweed (Stellaria media); test: Test B postemergence plant response
Procedure, shortened: as §2

[9] = test system: windgrass (Apera spica-venti); test: Test B postemergence plant response
Procedure, shortened: as §2

[10] = test system: winter barley (Hordeum vulgare); test: Test B postemergence plant response
Procedure, shortened: as §2

[11] = 31 g ai/ha, 0 to 100 scale (0 no effect, 100 complete control)
[12] = 62 g ai/ha, scale 0 to 100 (0 no effect, 100 complete control)
[13] = 125 g ai/ha, scale 0 to 100 (0 no effect, 100 complete control)
[14] = 250 g ai/ha, scale 0 to 100 (0 no effect, 100 complete control), 13 to 15 days

COCCn1c(-c2ccsc2)ncc(C(=O)C2=C(O)C3CCC(C3)C2=O)c1=O (stereo not shown) [Compound 228]
85: Plant response rating, Bermudagrass [1, 12] | Plant response rating, Corn (corn (Zea mays); [12]) | Plant response rating, Corn (corn (Zea mays); [13]) | Plant response rating, Foxtail, Giant [4, 11] | Plant response rating, Foxtail, Giant [4, 12]
75: Plant response rating, Johnsongrass [5, 11] | Plant response rating, Johnsongrass [5, 12]
95: Plant response rating, Bermudagrass [1, 14] | Plant response rating, Foxtail, Giant [4, 13] | Plant response rating, Foxtail, Giant [4, 14] | Plant response rating, Johnsongrass [5, 13] | Plant response rating, Soybean (soybean (Glycine max); [11])
5: Plant response rating, Blackgrass [2, 11] | Plant response rating, Oat, Wild (wild oat (Avena fatua); [12]) | Plant response rating, Canarygrass [7, 13] | Plant response rating, Windgrass [9, 11] | Plant response rating, Barley [10, 12]
35: Plant response rating, Blackgrass [2, 12]
0: Plant response rating, Oat, Wild (wild oat (Avena fatua); [11]) | Plant response rating, Canarygrass [7, 11] | Plant response rating, Canarygrass [7, 12] | Plant response rating, Barley [10, 11]
10: Plant response rating, Canarygrass [7, 14]
90: Plant response rating, Bermudagrass [1, 13] | Plant response rating, Corn (corn (Zea mays); [14]) | Plant response rating, Kochia (kochia (Kochia scoparia); [11]) | Plant response rating, Windgrass [9, 14]
80: Plant response rating, Bermudagrass [1, 11] | Plant response rating, Corn (corn (Zea mays); [11])
55: Plant response rating, Blackgrass [2, 14]
50: Plant response rating, Blackgrass [2, 13] | Plant response rating, Windgrass [9, 12]
40: Plant response rating, Oat, Wild (wild oat (Avena fatua); [14]) | Plant response rating, Barley [10, 13] | Plant response rating, Barley [10, 14]
100: Plant response rating, Cocklebur [3, 13] | Plant response rating, Cocklebur [3, 14] | Plant response rating, Johnsongrass [5, 14] | Plant response rating, Kochia (kochia (Kochia scoparia); [12]) | Plant response rating, Kochia (kochia (Kochia scoparia); [13]) | Plant response rating, Kochia (kochia (Kochia scoparia); [14]) | Plant response rating, Morningglory [6, 11] | Plant response rating, Morningglory [6, 12] | Plant response rating, Morningglory [6, 13] | Plant response rating, Morningglory [6, 14] | Plant response rating, Soybean (soybean (Glycine max); [14]) | Plant response rating, Chickweed [8, 12] | Plant response rating, Chickweed [8, 13] | Plant response rating, Chickweed [8, 14]
98: Plant response rating, Cocklebur [3, 11] | Plant response rating, Cocklebur [3, 12] | Plant response rating, Soybean (soybean (Glycine max); [12]) | Plant response rating, Chickweed [8, 11]

O=C(C1=C(O)C2CCC(C2)C1=O)c1cnc(-c2ccsc2)n(CC2CCCO2)c1=O (stereo not shown) [Compound 229]
85: Plant response rating, Bermudagrass [1, 13] | Plant response rating, Cocklebur [3, 11] | Plant response rating, Corn (corn (Zea mays); [13]) | Plant response rating, Corn (corn (Zea mays); [14]) | Plant response rating, Chickweed [8, 12]
35: Plant response rating, Oat, Wild (wild oat (Avena fatua); [14])
5: Plant response rating, Blackgrass [2, 13] | Plant response rating, Oat, Wild (wild oat (Avena fatua); [12]) | Plant response rating, Canarygrass [7, 11] | Plant response rating, Barley [10, 13]
75: Plant response rating, Bermudagrass [1, 11] | Plant response rating, Foxtail, Giant [4, 11]
100: Plant response rating, Cocklebur [3, 13] | Plant response rating, Cocklebur [3, 14] | Plant response rating, Johnsongrass [5, 12] | Plant response rating, Johnsongrass [5, 13] | Plant response rating, Johnsongrass [5, 14] | Plant response rating, Kochia (kochia (Kochia scoparia); [14]) | Plant response rating, Morningglory [6, 12] | Plant response rating, Morningglory [6, 13] | Plant response rating, Morningglory [6, 14]
65: Plant response rating, Windgrass [9, 14]
40: Plant response rating, Windgrass [9, 12]
95: Plant response rating, Foxtail, Giant [4, 14] | Plant response rating, Soybean (soybean (Glycine max); [11])
25: Plant response rating, Barley [10, 14]
15: Plant response rating, Canarygrass [7, 12]
30: Plant response rating, Blackgrass [2, 14]
98: Plant response rating, Morningglory [6, 11] | Plant response rating, Soybean (soybean (Glycine max); [12]) | Plant response rating, Soybean (soybean (Glycine max); [14]) | Plant response rating, Chickweed [8, 14]
60: Plant response rating, Canarygrass [7, 14]
90: Plant response rating, Bermudagrass [1, 14] | Plant response rating, Cocklebur [3, 12] | Plant response rating, Chickweed [8, 13]
55: Plant response rating, Kochia (kochia (Kochia scoparia); [11])
80: Plant response rating, Bermudagrass [1, 12] | Plant response rating, Corn (corn (Zea mays); [12]) | Plant response rating, Foxtail, Giant [4, 12] | Plant response rating, Foxtail, Giant [4, 13] | Plant response rating, Kochia (kochia (Kochia scoparia); [13])
0: Plant response rating, Blackgrass [2, 11] | Plant response rating, Blackgrass [2, 12] | Plant response rating, Oat, Wild (wild oat (Avena fatua); [11]) | Plant response rating, Windgrass [9, 11] | Plant response rating, Barley [10, 11] | Plant response rating, Barley [10, 12]
50: Plant response rating, Canarygrass [7, 13]
70: Plant response rating, Corn (corn (Zea mays); [11]) | Plant response rating, Johnsongrass [5, 11] | Plant response rating, Kochia (kochia (Kochia scoparia); [12]) | Plant response rating, Chickweed [8, 11]
